Assay: xn = mol fraction of the nth substance listed

CCCCC + CCCCCCCCCCCC
Conditions	viscosity [mPa·s]
293.15 K, 100 kPa, x1 = 0.0988	1.33
293.15 K, 100 kPa, x1 = 0.2004	1.153
293.15 K, 100 kPa, x1 = 0.2963	0.995
293.15 K, 100 kPa, x1 = 0.4022	0.847
293.15 K, 100 kPa, x1 = 0.5005	0.686
293.15 K, 100 kPa, x1 = 0.5989	0.581
293.15 K, 100 kPa, x1 = 0.7029	0.468
293.15 K, 100 kPa, x1 = 0.8	0.388
293.15 K, 100 kPa, x1 = 0.9011	0.304
298.15 K, 100 kPa, x1 = 0.0988	1.216
298.15 K, 100 kPa, x1 = 0.2004	1.054
298.15 K, 100 kPa, x1 = 0.2963	0.923
298.15 K, 100 kPa, x1 = 0.4022	0.79
298.15 K, 100 kPa, x1 = 0.5005	0.642
298.15 K, 100 kPa, x1 = 0.5989	0.548
298.15 K, 100 kPa, x1 = 0.7029	0.443
298.15 K, 100 kPa, x1 = 0.8	0.369
298.15 K, 100 kPa, x1 = 0.9011	0.289
298.15 K, 101.33 kPa, x1 = 0.1094	1.194
298.15 K, 101.33 kPa, x1 = 0.2073	1.037
298.15 K, 101.33 kPa, x1 = 0.299	0.9143
298.15 K, 101.33 kPa, x1 = 0.4078	0.7711
298.15 K, 101.33 kPa, x1 = 0.5008	0.6622
298.15 K, 101.33 kPa, x1 = 0.6031	0.5504
298.15 K, 101.33 kPa, x1 = 0.7069	0.4481
298.15 K, 101.33 kPa, x1 = 0.8062	0.3631
298.15 K, 101.33 kPa, x1 = 0.8991	0.2925
303.15 K, 100 kPa, x1 = 0.0988	1.119
303.15 K, 100 kPa, x1 = 0.2004	0.975
303.15 K, 100 kPa, x1 = 0.2963	0.857
303.15 K, 100 kPa, x1 = 0.4022	0.738
303.15 K, 100 kPa, x1 = 0.5005	0.603
303.15 K, 100 kPa, x1 = 0.5989	0.516
303.15 K, 100 kPa, x1 = 0.7029	0.42
303.15 K, 100 kPa, x1 = 0.8	0.358
303.15 K, 100 kPa, x1 = 0.9011	0.275
308.15 K, 100 kPa, x1 = 0.0988	1.032
308.15 K, 100 kPa, x1 = 0.2004	0.906
308.15 K, 100 kPa, x1 = 0.2963	0.8
308.15 K, 100 kPa, x1 = 0.4022	0.693
308.15 K, 100 kPa, x1 = 0.5005	0.568
308.15 K, 100 kPa, x1 = 0.5989	0.489
308.15 K, 100 kPa, x1 = 0.7029	0.399
308.15 K, 100 kPa, x1 = 0.8	0.34
313.15 K, 100 kPa, x1 = 0.0988	0.957
313.15 K, 100 kPa, x1 = 0.2004	0.843
313.15 K, 100 kPa, x1 = 0.2963	0.748
313.15 K, 100 kPa, x1 = 0.4022	0.65
313.15 K, 100 kPa, x1 = 0.5005	0.536
313.15 K, 100 kPa, x1 = 0.5989	0.463
313.15 K, 100 kPa, x1 = 0.7029	0.38
318.15 K, 100 kPa, x1 = 0.0988	0.89
318.15 K, 100 kPa, x1 = 0.2004	0.789
318.15 K, 100 kPa, x1 = 0.2963	0.702
318.15 K, 100 kPa, x1 = 0.4022	0.612
318.15 K, 100 kPa, x1 = 0.5005	0.507
318.15 K, 100 kPa, x1 = 0.5989	0.44
323.15 K, 100 kPa, x1 = 0.0988	0.83
323.15 K, 100 kPa, x1 = 0.2004	0.734
323.15 K, 100 kPa, x1 = 0.2963	0.66
323.15 K, 100 kPa, x1 = 0.4022	0.578
323.15 K, 100 kPa, x1 = 0.5005	0.481

CCCCC + CCCCCCCCCCCCCCCC
298.15 K, 101.33 kPa
Conditions	viscosity [mPa·s]
x1 = 0.1111	2.574
x1 = 0.2119	2.17
x1 = 0.3099	1.816
x1 = 0.4166	1.457
x1 = 0.5122	1.172
x1 = 0.6089	0.9218
x1 = 0.7034	0.7004
x1 = 0.8034	0.5086
x1 = 0.9029	0.3464

CS(C)=O + CCCCCCCO
101 kPa
Conditions	viscosity [mPa·s]
303.15 K, x1 = 0.1547	4.098
303.15 K, x1 = 0.3356	3.3
303.15 K, x1 = 0.4628	2.842
303.15 K, x1 = 0.5727	2.55
303.15 K, x1 = 0.6715	2.336
303.15 K, x1 = 0.7519	2.179
303.15 K, x1 = 0.8247	2.052
303.15 K, x1 = 0.8847	1.987
303.15 K, x1 = 0.9327	1.891
313 K, x1 = 0.1239	3.068
313 K, x1 = 0.2133	2.75
313 K, x1 = 0.2979	2.528
313 K, x1 = 0.4847	2.188
313 K, x1 = 0.5993	1.998
313 K, x1 = 0.7039	1.839
313 K, x1 = 0.8016	1.743
313 K, x1 = 0.9028	1.621

CCCCC(=O)OCC + CCCCCCO
viscosity [mPa·s], 101.33 kPa
Conditions	x1 = 0.1071	x1 = 0.2022	x1 = 0.3018	x1 = 0.3929	x1 = 0.5117	x1 = 0.6028	x1 = 0.7035	x1 = 0.8025	x1 = 0.9053
293.15 K	3.938	3.209	2.61	2.177	1.74	1.483	1.258	1.086	0.946
303.15 K	3.004	2.46	2.012	1.688	1.362	1.17	1.002	0.873	0.769
313.15 K	2.257	1.873	1.558	1.329	1.1	0.964	0.846	0.755	0.682

Reference: the CheMixHub viscosity set
